Measurements: patent US9408835B2, “Pharmaceutical composition for oral administration” (ASTELLAS PHARMA INC., priority 2013, dated 2016)
In brackets after ≈: the same amount, converted by molar mass. Read-outs that look alike come from different tables or passages of the source.

Key:
Janus kinase 3 = target: T1, Janus kinase 3 (Homo sapiens, UniProt P52333); details: reported in Patent literature 1; cited from earlier work
T1 sequence (P52333 1-1124): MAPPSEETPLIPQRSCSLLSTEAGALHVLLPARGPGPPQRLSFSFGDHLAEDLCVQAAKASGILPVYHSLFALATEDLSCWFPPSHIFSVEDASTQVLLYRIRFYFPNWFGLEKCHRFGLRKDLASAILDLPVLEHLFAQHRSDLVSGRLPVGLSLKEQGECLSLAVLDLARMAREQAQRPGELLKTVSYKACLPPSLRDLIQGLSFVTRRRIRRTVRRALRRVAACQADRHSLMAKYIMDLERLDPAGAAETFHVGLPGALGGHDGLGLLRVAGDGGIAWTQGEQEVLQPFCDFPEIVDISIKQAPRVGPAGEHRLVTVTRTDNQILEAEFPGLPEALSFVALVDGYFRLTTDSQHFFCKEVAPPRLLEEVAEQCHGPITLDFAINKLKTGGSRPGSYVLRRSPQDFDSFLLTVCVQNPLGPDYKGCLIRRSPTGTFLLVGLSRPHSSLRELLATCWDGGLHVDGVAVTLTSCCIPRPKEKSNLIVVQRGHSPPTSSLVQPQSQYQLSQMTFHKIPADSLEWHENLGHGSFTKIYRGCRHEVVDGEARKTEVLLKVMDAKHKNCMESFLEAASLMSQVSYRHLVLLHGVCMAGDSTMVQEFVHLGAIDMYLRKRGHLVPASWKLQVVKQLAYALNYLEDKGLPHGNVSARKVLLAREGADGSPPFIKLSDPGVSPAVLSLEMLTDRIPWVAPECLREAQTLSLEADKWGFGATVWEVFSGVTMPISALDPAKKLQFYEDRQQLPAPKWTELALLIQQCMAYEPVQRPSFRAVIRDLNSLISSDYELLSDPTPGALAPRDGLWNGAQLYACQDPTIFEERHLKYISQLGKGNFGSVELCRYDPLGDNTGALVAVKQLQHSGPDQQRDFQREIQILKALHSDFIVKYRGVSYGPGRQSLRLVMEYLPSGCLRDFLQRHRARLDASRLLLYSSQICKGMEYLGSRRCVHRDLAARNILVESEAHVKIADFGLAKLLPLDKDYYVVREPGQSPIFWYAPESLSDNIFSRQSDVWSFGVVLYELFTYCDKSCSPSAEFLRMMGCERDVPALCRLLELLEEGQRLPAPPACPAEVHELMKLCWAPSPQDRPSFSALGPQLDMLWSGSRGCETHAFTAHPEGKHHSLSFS

[1] = Solubility of compound A in dissolution test fluids and water; type: physicochemical

SMILES: NC(=O)c1cnc2[nH]ccc2c1N[C@@H]1[C@@H]2CC3C[C@H]1C[C@@](O)(C3)C2 [compound A, 4-{[(1R,2s,3S,5s,7s)-5-hydroxy-2-adamantyl]amino}-1H-pyrrolo[2,3-b]pyridine-5-carboxamide]
- JAK3 inhibitory activity (Janus kinase 3): superior
- difference in solubility between acidic and neutral pH range ([1]; JP1 pH 1.2 vs pH 6.8): about 1,000 times
- solubility ([1]; Japanese Pharmacopoeia, aqueous buffer, 2nd fluid for dissolution test JP2 (pH 6.8), read-out: solubility at a neutral pH range): ~8 µg/mL (≈ 0.0245 mM)
- solubility ([1]; Japanese Pharmacopoeia, simulated gastric fluid, 1st fluid for dissolution test JP1 (pH 1.2), read-out: solubility at an acidic pH range): ~8600 µg/mL (≈ 26.3 mM)
- solubility ([1]; aqueous buffer, pH 6.8 phosphate buffer, USP, read-out: solubility at a neutral pH range): ~11 µg/mL (≈ 0.0337 mM)
- solubility ([1]; water, read-out: solubility in water): ~12500 µg/mL (≈ 38.3 mM)
